Test results taken from patent publication US20260355239A1, “COMBINATION OF A T CELL THERAPY AND CONTINUOUS OR INTERMITTENT DGK INHIBITOR DOSING” (Juno Therapeutics, Inc., priority 2022, published 2026).
pEC50: −log10 of the molar value.

Columns and labels:
Human venous whole blood = experiment: Human Whole Blood IFN-γ Assay; assay type: cell-based; details: anti-CD3 + anti-CD28, 24 h, normalized to 3 μM reference compound, read-out: INFg Whole Blood Normalized-Agonist EC50
Procedure: 9. Human Whole Blood IFN-γ Assay
Human venous whole blood (22.5 μL per well), obtained from healthy donors, was pre-treated with compounds for one hour at 37 °C in a humidified 95% air/5% CO2 incubator. The blood was stimulated with 2.5 μL anti-human CD3 and anti-CD28 mAb at a final concentration of 1 μg/mL each for 24 hours at 37 °C. IFN-γ in the supernatants was measured using AlphLISA kit (Cat #AL217).

anti-CD19 CAR-T cells = experiment: CAR-T cell viability; assay type: cell-based, human; details: acute stimulation assays
Source text: T cell compositions containing T cells expressing an exemplary anti-CD19 CAR were generated from leukapheresis samples from two healthy human adult donors by a process that included immunoaffinity-based selection of T cells by separately selecting CD4+ and CD8+ cells from the samples, resulting in two compositions enriched for CD4+ and CD8+ cells, respectively, per donor. Cells of the enriched CD4+ and CD8+ compositions were separately activated with anti-CD3/anti-CD28 beads and subjected to lentiviral transduction with a vector encoding an anti-CD19 CAR. […]
Prior to use, the cryopreserved CD4+ and CD8+ CAR-engineered cell compositions were thawed and combined at approximately a 1:1 CD4:CD8 ratio for each donor to prepare a combined CD4+ CAR+ and CD8+ CAR+ T cell composition. The effects of treatment with Compound 17 at various concentrations (0.1 nM, 1 nM, 10 nM, 100 nM, or 1000 nM) added at day 0 during stimulation of the combined CAR-T cell composition with a plate-bound CAR-specific anti-idiotypic antibody (see, e.g., WO2018/023100) or during co-culture with CD19-expressing cells was then assessed.

[1] = system: anti-CD19 CAR-T cells with A549.CD19 and Granta-519 tumor spheroids; experiment: Cytokine production of chronically stimulated, concurrently treated CAR-T cells, 3D spheroids; assay type: cell-based, human; details: concurrent treatment during chronic stimulation, five days
Procedure: To simulate conditions of chronic stimulation, approximately 20,000 anti-CD19 CAR-expressing T cells of a combined CAR-T cell composition produced as described in Example 2 from two healthy adult donors were incubated with 30 µg/mL of plate-bound CAR-specific anti-idiotypic antibody (see, e.g., WO2018/023100) at 37 °C for a period of seven days. During this seven-day period, engineered CAR T cells were concurrently treated with Compound 17(0.1-1000 nM) or a vehicle control added at day 0.
To further assess activity of chronically stimulated cell, the chronically stimulated CAR-T cells that had been concurrently treated with DGKi were incubated with A549 CD19+ tumor spheroids or Granta-519 tumor spheroids to rechallenge the CAR-T cells at an effector to target ratio of 1:2 for up to 14 days. The tumor spheroids were engineered to express a red fluorescent dye to permit monitoring of tumor cell lysis by microscopy during the assay.
Supernatant was collected at day 5 from the above tumor spheroid cultures with chronically stimulated CAR-expressing T cells. Cytokine production was measured from the supernatant by meso scale discovery (MSD) analysis of the collected cell supernatants. […] Duplicate values for cell compositions manufactured from the two different healthy donors are shown.

K562.CD19 cells = experiment: Rescue treatment: cytolytic activity of chronically stimulated CAR-T cells, 2D, K562.CD19; assay type: cell-based, human; details: higher concentrations, 2D co-culture
[2] = system: anti-CD19 CAR-T cells with A549.CD19 and Granta-519 tumor spheroids; experiment: Rescue treatment: cytokine production of chronically stimulated CAR-T cells, 3D spheroids; assay type: cell-based, human; details: 3D spheroid co-culture, five days
Procedure: Anti-CD19 CAR-expressing T cells, produced as described in Example 2, were chronically stimulated with plate-bound CAR-specific anti-idiotypic antibody for seven days as described in Example 3, but in the absence of Compound 17 during chronic stimulation. Instead, chronically stimulated CAR T cells were treated with Compound 17 during re-challenge with CD19-expressing tumor cells, after which cytolytic activity and cytokine production were assessed.
Cytolytic activity also was assessed in CD19-expressing tumor spheroid cultures incubated with chronically stimulated CAR-T cells in the presence of DGKi. A549 CD19+ tumor spheroids or Granta-519 tumor spheroids were incubated with the anti-CD19 CAR-expressing T cells at an effector to target ratio of 1:2 for up to 14 days in the presence of DGKi (0-1000 nM). The tumor spheroids were engineered to express a red fluorescent dye to permit monitoring of tumor cell lysis by microscopy during the assay. Cytolytic activity was assessed by monitoring fluorescence over time, and the tumor volume (normalized to time zero) was measured as the number of red calibrated units (RCU)×μm^2 area. […]
Supernatant was collected at day 5 from the above tumor spheroid cultures with chronically stimulated CAR-expressing T cells. Cytokine production was measured from the supernatant by meso scale discovery (MSD) analysis of the collected cell supernatants. […]

eTCR T cells = experiment: Rescue treatment: proliferation of chronically stimulated eTCR T cells on re-stimulation; assay type: cell-based, human; details: 100 nM, 7 day re-stimulation with 20 μg/mL anti-Vbeta
Source text: Primary human CD4+ and CD8+ T cells were isolated from healthy donors by immunoaffinity-based methods. The isolated CD4+ and CD8+ T cells were combined and stimulated with an anti-CD3/anti-CD28 reagent, and then were transduced with a lentiviral vector encoding an anti-human papillomavirus 16 (anti-HPV16) eTCR. The nucleotide sequences encoding the beta chain and the alpha chain of the eTCR were separated by a sequence encoding a 2A ribosome skip element. Following transduction, the cells were cultured in media containing human serum and cytokines for 9-10 days prior to further assessment.
In another experiment to assess activity of the DGKi to rescue or reverse exhaustion, eTCR T cells were chronically stimulated for 6 days as described above in the absence of Compound 17. Then, chronically stimulated eTCR T cells or freshly thawed eTCR T cells that had not been chronically stimulated were re-stimulated with 20 μg/mL plate-bound antibody against the Vbeta chain of the eTCR in the presence of 100 nM Compound 17 for 7 days. As a control, chronically stimulated eTCR T cells were re-stimulated in the absence of Compound 17 for 7 days. At the end of the 7 day re-stimulation, cell counts were determined.

Raji-rFluc cells = experiment: In vivo anti-tumor effect with lower CAR T cell dose, Raji-rFluc NSG mice (Example 7)
Procedure: The in vivo anti-tumor effects of a continuous Compound 17 dosing regimen in combination with a lower dose of CD19-directed CAR T cells were assessed.
These doses of CAR-expressing T cells were not expected to achieve complete tumor rejection.

[3] = 0.3 or 0.6 mg/kg oral once daily Days 1-30 with 0.5×10^6 or 1×10^6 CAR T cells, vs CAR T cells alone

CC[C@H]1CN([C@@H](CC)c2ccc(C(F)(F)F)cc2)[C@H](CC)CN1c1nc(=O)n(C)c2ccc(C#N)nc12 [Compound 17, 4-((2S,5R)-2,5-diethyl-4-((S)-1-(4-(trifluoromethyl)phenyl)propyl)piperazin-1-yl)-1-methyl-2-oxo-1,2-dihydropyrido[3,2-d]pyrimidine-6-carbonitrile]
pEC50 (Human venous whole blood): 7.70 | T cell viability (anti-CD19 CAR-T cells): no impact of Compound 17 on T cell viability was observed | production of IFNγ, IL-2 and TNFα [1]: dose-dependent increase in production of all three cytokines | cytolytic activity of CAR T cells against K562.CD19 cells (K562.CD19 cells): improved the cytolytic activity of CAR T cells against K562.CD19 and Granta-519 cells | production of IFNγ, IL-2 and TNFα [2]: dose-dependent increase in production of all three cytokines | proliferation of chronically stimulated eTCR T cells (cell counts) (eTCR T cells): increased proliferation of the eTCR T cells | CAR T cell expansion and/or persistence (Raji-rFluc cells; 0.3 or 0.6 mg/kg oral once daily Days 1-30, all groups): increased CAR T cell expansion and/or persistence in all groups | survival (Raji-rFluc cells; [3]): improved survival in all groups | tumor burden (Raji-rFluc cells; [3]): lowered tumor burden | tumor suppression (tumor control index) (Raji-rFluc cells; [3]): enhanced tumor suppression in all groups | CAR T cell expansion, lower CAR T cell dose (Raji-rFluc cells; 0.5×10^6 CAR T cells + 0.3 mg/kg, relative to higher CAR T cell dose in combination with Compound 17): CAR T cell expansion was delayed | circulating CAR T cell counts, lower CAR T cell dose (Raji-rFluc cells; 0.5×10^6 CAR T cells + 0.3 mg/kg, vs higher CAR T cell dose alone): later exceeded circulating CAR T cell counts for the group that received the higher CAR T cell dose alone
